Data from patent publication US20020043656A1, “GREEN ORGANIC LUMINOPHOR” (priority 2000, published 2002).
Read-outs that look alike come from different tables or passages of the source.

Experiments:
[1] = Electron absorption spectra / extinction; assay type: physicochemical
From the text: The compound structure was confirmed by electron absorption spectra and IR ones.

[2] = Absolute fluorescence quantum yield, equal absorption technique; assay type: physicochemical
Experimental: The absolute quantum yield was determined using the equal absorption technique (A. S. Cherkasov, Z. Fiz. Khim. 29, 2209, […]).

[3] = Fluorescence (luminescence) spectra; assay type: physicochemical; conditions: for Luminescence in toluene λmax: 365 nm excitation
Experimental: Fluorescence spectra in toluene were measured and absolute fluorescence quantum yields in crystals were determined.
The fluorescence spectra were measured using a setup including a 3MR-3 mirror monochromator, a FEU-1 8 photomultiplier, an M-95 microampermeter. A SVDT-95 lamp was used as the excitation source, the 365 nm exciting line was singled out of its spectrum.

[4] = cited from earlier work; for Luminescence in toluene λmax: prior art analogs
[5] = prior art; cited from earlier work
[6] = various reagents; prior art; cited from earlier work
[7] = cited from earlier work; for Luminescence in toluene η (quantum yield): prior art analogs; for quantum yield η: prior art, medium not stated
[8] = prior art, cited from earlier work

maximum absorption (extinction coefficient) [1]	Absorption λ ([1]; in toluene)	Luminescence in toluene η (quantum yield) ([2]; in toluene solution)	quantum yield ([2]; medium not stated)	quantum yield of photoluminescence η ([2]; solid state (vacuum-deposited film))	Luminescence in toluene λmax [3]	Luminescence in toluene λmax ([3]; listed as Example 1)	λmax.lum ([3]; medium not stated)	Compound	luminescence spectral maximum wavelength ([4]; depending on the luminophor concentration)	Luminescence in toluene λmax [4]	extinction coefficient in the absorption maximum [5]	chemical stability [6]	Luminescence in toluene η (quantum yield) [7]	Luminescence in toluene η (quantum yield) ([7]; listed as Lumogen yellow-green)	quantum yield η [7]	solubility in organic media ([8]; organic media)	solubility in water ([8]; water)	λmax.lum ([4]; prior art, medium not stated)
≤ 30,000	412 nm	0.85	approximately 0.82+0.05	0.78	510 nm	495 nm	> 510 nm	1-phenyl-5-(p-methoxyphenyl)-3-[1,8-naphthoylene-1′,2′-benzimidazol-4-yl]-2-pyrazol	–	–	–	–	–	–	–	–	–	–
–	–	–	–	–	–	–	–	O=c1c2cccc3cccc(c32)c2nc3ccccc3n12 [Prior art emission range analog, 1,8-naphthoylene-1′,2′-benzimidazol]	490 to 510 nm	490 nm	8000	chemically stable against various reagents	0.5	> 0.5	> 0.5	soluble in organic media	essentially water-insoluble	–
–	–	–	–	–	–	–	–	COc1cccc2c(-c3ccc(N(C)C)cc3)c3nn(C)cc3nc12 [Prior art structure analog, 2-methyl-5-methoxy-9-(4-dimethylaminophenyl)-2H-pyrazolo[4,3-b]quinoline]	–	510 nm	–	–	0.8	–	0.8	–	–	510 nm
